Assay results taken from paper PMC10572428, “Possibility of Using Different Calcium Compounds for the Manufacture of Fresh Acid Rennet Cheese from Goat’s Milk” (Foods, 2023).
Where two headings read alike, the source gives them in different places.

Key:
[1] = pH value of goat's milk after pasteurization with added calcium compound; assay type: physicochemical
Description: (§1) Doses of calcium (5, 10, 15, and 20 mg Ca 100 g^−1 milk), based on the calcium compound’s molecular weight, were added to 100 g of raw goat’s milk in the form of chloride, gluconate, lactate, and carbonate and tested to determine the pH value and thermal stability of milk. A control sample (0 mg Ca 100 g^−1 milk) was also prepared. The samples were heated in a water bath to 25 °C, mixed, and pasteurized (90 °C, 15 s). In the cooled (25 °C) samples of control milk and milk with calcium addition, the pH value was determined using a FiveEasy pH meter with an electrode InLab® Solids Pro-ISM (Mettler Toledo, Greifensee, Switzerland).

[2] = pH of fresh acid rennet cheese; assay type: physicochemical, goat
Description: Fresh acid rennet cheese was produced following the methodology by Pawlos et al. (Scheme 1). The caprine milk was divided into batches, each containing 2000 g of milk, heated to 25 °C, and treated with varying amounts and dosages of calcium compound. The control sample (0 mg Ca per 100 g of milk) and milk with calcium addition (5, 10, 15, 20 mg Ca per 100 g of milk) were pasteurized in a water bath at 90 °C for 15 s. Subsequently, the milk was cooled to 28 °C, and each batch was inoculated with 0.20% (w/w) of starter culture for 15 min before adding 0.02% (v/w) of rennet. […] Acid rennet curds were then cut into 15 × 15 × 15 mm cubes and heated in a water bath at 35 °C for 1.5 h. Following this, the temperature was increased to 40 °C for 0.5 h. The whey was separated using cheesecloth, and the curds were transferred to molds, pressed (10 N kg^−1, 0.5 h) using a pneumatic cylinder press (Pneumatig, Gdynia, Poland), and refrigerated in labeled individual plastic containers at 4 °C for 24 h prior to analysis. All physicochemical analyses were conducted on ground cheese samples.
A pH meter (FiveEasy Mettler Toledo, Greifensee, Switzerland) and an electrode InLab® Solids Pro-ISM (Mettler Toledo, Greifensee, Switzerland) were used to determine the pH value in cheese.

[3] = Thermal stability of goat milk proteins during pasteurization (90 °C, 15 s); assay type: physicochemical; conditions: doses up to 20 mg Ca per 100 g of milk
Description: as §1

[4] = Texture profile analysis (TPA) of cheese; assay type: physicochemical, goat
Description: Fresh acid rennet cheese was produced following the methodology by Pawlos et al. (Scheme 1). The caprine milk was divided into batches, each containing 2000 g of milk, heated to 25 °C, and treated with varying amounts and dosages of calcium compound. The control sample (0 mg Ca per 100 g of milk) and milk with calcium addition (5, 10, 15, 20 mg Ca per 100 g of milk) were pasteurized in a water bath at 90 °C for 15 s. Subsequently, the milk was cooled to 28 °C, and each batch was inoculated with 0.20% (w/w) of starter culture for 15 min before adding 0.02% (v/w) of rennet. The mixture was stirred and incubated at 28 °C until the pH reached 4.60 (±0.50) in a Cooled Incubator ILW 115 (POL-EKO Aparatura, Wodzisław Śląski, Poland). Acid rennet curds were then cut into 15 × 15 × 15 mm cubes and heated in a water bath at 35 °C for 1.5 h. Following this, the temperature was increased to 40 °C for 0.5 h. The whey was separated using cheesecloth, and the curds were transferred to molds, pressed (10 N kg^−1, 0.5 h) using a pneumatic cylinder press (Pneumatig, Gdynia, Poland), and refrigerated in labeled individual plastic containers at 4 °C for 24 h prior to analysis. All physicochemical analyses were conducted on ground cheese samples.
The texture profile analysis test (TPA) was performed with a CT3 Texture Analyzer and Texture Pro CT 1.2 software (Brookfield AMETEK, Middleboro, MA, USA). Before testing, cheese samples were cut (20 × 20 × 20 mm) and kept at a temperature of 10 °C ± 1 °C. Compression test was performed using a plastic plunger type TA3/100 (25.4 mm diameter) and configured with the following parameters: distance 15 mm, measurement speed 5 mm s^−1, contact load 1.00 N, and hold time 1 s. The TPA test was applied to measure cheese hardness (N), adhesiveness (mJ), cohesiveness, and springiness (mm).

[5] = set-up: method as in doi:10.21608/jfds.2019.54698; conditions: cited from earlier work
[6] = set-up: method as in doi:10.1111/j.1471-0307.2010.00613.x; conditions: 30 mM calcium added before heating; cited from earlier work

With `O=C([O-])[O-].[Ca+2]` [Carbonate, calcium carbonate] the “increase of milk pH value compared to the control sample” value [1] was 0.11, the “cheese pH value higher than the control cheese” value [2] was 0.19 and the “thermal stability of milk during pasteurization” value (shortened to “thermal stability”) [3] was “not reduced”.

In the case of `[Ca+2].[Cl-].[Cl-]` [Chloride, Calcium chloride], the “reduction of milk pH value compared to the control sample” value ([1]; greatest reduction) is reported as 0.23, the “reduction of milk pH” value ([1]; lowest dose of calcium, 5 mg 100 g^−1) is reported as 0.17 and the Springiness ([4]; 5 mg Ca 100 g^−1 of milk) is reported as 1.27 mm. The “thermal stability” value [3] was “not reduced”, the “pH of Karish cheese” value ([5]; 200 mg 100 mL^−1 added to milk) was 4.69 and the “pH of Karish cheese” value ([5]; 300 mg 100 mL^−1 added to milk) was 4.50. The “reduction of pH of cow's milk” value [6] was “up to 0.64”.

For `O=C([O-])[C@H](O)[C@@H](O)[C@H](O)[C@H](O)CO.O=C([O-])[C@H](O)[C@@H](O)[C@H](O)[C@H](O)CO.[Ca+2]` [Gluconate, calcium gluconate], the pH ([2]; cheese, 20 mg Ca 100 g^−1 of milk) was 4.61, the Cohesiveness ([4]; 15 mg Ca 100 g^−1 of milk) was 0.30 and the Springiness ([4]; 15 mg Ca 100 g^−1 of milk) was 3.94 mm. The “thermal stability” value [3] was “not reduced”.

In the case of `CC(O)C(=O)[O-].CC(O)C(=O)[O-].[Ca+2]` (stereo not drawn) [Lactate, calcium lactate], the “thermal stability” value [3] is reported as “not reduced”.
